# System: Hypercholesterolemic Golden Syrian hamsters
# Assay: In vivo efficacy in cholesterol-fed hypercholesterolemic hamsters (plasma cholesterol, plasma triglyceride, hepatic cholesteryl ester)
# [1] = cholesterol-fed hamsters, versus Control, Table 1
# Description: Male Golden Syrian hamsters (Charles River Labs, Wilmington, MA) weighing between 100 and 125 g were fed Wayne rodent chow until study onset. At study onset (Day 1) animals were separated into groups (n=4-6/group) and fed chow supplemented with 0.5% by weight of cholesterol (Research Diets Inc., New Brunswick, NJ). The Control and Test compounds were administered once daily for 7 days, starting on Day 1 via oral gavage in 0.2 ml corn oil. Corn oil was used as the Control.
# On Day 7, blood was collected into tubes containing ethylenediaminetetraacetic acid (EDTA), and plasma was prepared by low speed centrifugation at 40C. Liver samples (0.5 g) were taken for neutral lipid analyses.
# Nonfasted plasma cholesterol levels were determined by a modification of the cholesterol oxidase method, in which the reagents were available in a kit form from Wako Pure Chemicals Industries, Ltd. (Osaka, Japan). […] Assays were carried out at 37° C. for 10 min, along with cholesterol standards (Sigma Chemical Co., St. Louis, Mo.) and the resultant red quinone pigment's absorbance was determined spectrophotometrically at 505 nm.
# Samples of liver (0.5 g) were lipid extracted. Lipid extracts were dried under nitrogen into HPLC sample vials, resuspended in hexane and injected onto a Zorbax Sil (4.6×25 cm) silica column. […] Lipids were detected by absorbance at 206 nm and quantitated by computer integration (System Gold, Beckman) of elution profiles. […] Cholesteryl ester content of liver-derived samples was derived from a standard curve constructed using known amounts of cholesteryl oleate.
smiles,measurement,setting,value
COc1ccc([C@@H]2[C@@H](CCCc3ccccc3)C(=O)N2c2ccc(OC)cc2)cc1 [Compound XII],effect on accumulation of hepatic cholesteryl esters (in words),[1],reduced
same,effect on plasma cholesterol levels (in words),[1],reduced
same,Hepatic Cholesteryl Ester,"male hamsters fed chow with 0.5% cholesterol, oral gavage in corn oil once daily for 7 days, liver Day 7, Compound XII 3 mg/kg/day, niacin 100 mg/kg/day",12.75 ± 1.12 mg/g
same,Plasma Cholesterol,"male hamsters fed chow with 0.5% cholesterol, oral gavage in corn oil once daily for 7 days, nonfasted plasma Day 7, Compound XII 3 mg/kg/day, niacin 100 mg/kg/day",214 ± 13 mg/dL
same,Plasma Triglyceride,"male hamsters fed chow with 0.5% cholesterol, oral gavage in corn oil once daily for 7 days, plasma Day 7, Compound XII 3 mg/kg/day, niacin 100 mg/kg/day",200 ± 30 mg/dL
